From article PMC2488398, “Concurrence of Danish Dementia and Cataract: Insights from the Interactions of Dementia Associated Peptides with Eye Lens α-Crystallin” (PLoS ONE, 2008)

Tested on: rat lens
Experiment: Lens protein content in peptide-treated rat lenses
Assay type: cell-based, Wistar rat
Conditions: 10 µM peptide, 96 h
Experimental: Eyes were enucleated from 4 months old Wistar rats, obtained from National Center for Laboratory Animal Services, National Institute of Nutrition, Hyderabad immediately after sacrifice by cervical dislocation. Animal care and protocols were in accordance with and approved by Institutional Animal Ethics Committee. Lenses were dissected from the eyes by anterior approach. Each isolated lens was incubated in 2 ml of modified of TC-199 (Sigma) medium with antibiotics. Osmolarity of the medium was adjusted to 295 milli osmomoles using an osmometer (Micro Osmometer; Model-210, Fiske Associates, Norwood, MA, USA). Lenses were cultured as described previously, [33]. Lenses were incubated at 37°C under 95% air and 5% CO2 in the absence or presence of the various dementia associated peptides dissolved in DMSO for a period of 96 h. All the reagents/chemicals used for lens organ culture were filtered through 0.2 µm Millipore disc filters. Final concentration of a given dementia associated peptides in the culture medium was kept at 10 µM. Medium was changed every 24 h. At the end of incubation, lenses were kept on a grid (12/cm) for assessing the transparency by placing them above a light source.
Lenses were homogenized in 10 vol. of 0.05 M Tris buffer (pH 8.0), containing 0.1 M NaCl and 0.02% sodium azide. The homogenate was centrifuged at 15 000 g for 30 min at 4°C and the resulting supernatant was collected (soluble fraction). The pellet was washed thrice and constituted in the same buffer (insoluble fraction). Protein content in soluble and insoluble fractions was estimated by Lowry's method.

## Aβ (1–42): column label of Table 1; text gives the same value for Aβ-40
15 000 g pellet, Lowry's method, Control 95
  Insoluble protein: 145 mg/g lens
15 000 g supernatant, Lowry's method, Control 421
  Soluble protein: 310 mg/g lens
Lowry's method, Control 518
  Total protein: 464 mg/g lens
In relation to the amount of total protein, Control 81
  % Soluble protein: 67%
